System: VDCC
Experiment: Manganese-enhanced MRI (T1 maps, R1, estimated [Mn]) of pancreas and insulinomas
Type: in vivo, mice
Settings: for [Mn]: estimated from (R1post-R1pre)/r1
Method: In brief, mice were fasted for 4-6 hours and anesthetized with 1-2% isoflurane/O2 gas mixture (Vetland, Louisville, KY, USA) before the in vivo measurements. A tail vein catheter was initially placed for the co-injection of 50 µL of tracer solution (0.12 MBq/g bodyweight) and 50 µL of MnCl2:Bicine solution (75 µmol/kg body weight). The animals were placed in supine position on the bed in order to attenuate the motion artifacts rising from the respiratory movements. Thus, [^64Cu]Ex4 and MnCl2 solution were co-injected i.v. as a bolus a few seconds after the beginning of dynamic PET measurements. An additional i.v. injection of glucose solution (1.5 g/kg) was performed five minutes after the PET tracer and MR contrast agent injection to enhance the metabolic uptake of Mn by the pancreas. PET quantification was performed by 20-min static frames acquired simultaneously with 7T MRI scanner using a compatible PET-insert or consecutively using an Inveon-PET scanner (Inveon Dedicated PET, Siemens Healthineers, Knoxville, TN, USA). MR images were acquired using a mouse body quadrature volume RF-resonator with an inner diameter of 40 mm (MT0205, Bruker) on a 7 T Preclinical MR scanner (BioSpec 70/30, Bruker BioSpin MRI GmbH, Ettlingen, DE). During the acquisition, we monitored the breathing with an MR-compatible breathing sensor. The body temperature was maintained at 37 °C using a water-based warming pad.
In vivo MR measurement started with the acquisition of a rapid acquisition with relaxation enhancement (RARE) turbo-spin-echo (TSE) sequence with a large field of view to perform whole-body imaging with the following MR parameters: fat suppression module, repetition time (TR)/echo time (TE)=800/30.8 ms, respectively, field of view (FoV)=64×32×23 mm^3, matrix size 256×128, one average, bandwidth (BW)=75 kHz, RARE Factor (RF)=16 and an isotropic resolution of 0.25 mm. Then, we acquired consecutive RF-spoiled and slab selective gradient-echo (GRE) pulse sequences with short TR and keeping at the minimum the TE and using the following MR parameters: TR/TE=10/1.9 ms, FoV=34×34×17 mm^3, matrix size 128×128, two averages, BW=75 kHz, Sharpness=7 and approximatively 3 min of acquisition time per scan. Quantification of T1 was calculated by the acquisition of either two flip angles (4°, 22°), 0.27×0.27 mm^2 of in-plane resolution and 0.53 mm of slice thickness, or three flip angles (4°, 14°, 27°) with an isotropic resolution of 0.27 mm as described in Table 1.
The volume of interest (VOI) for the entire pancreas (Pancreas^Control; Pancreas^RIP1-Tag2) and the detected insulinomas (Insulinomas^RIP1-Tag2) were manually drawn in Inveon Research Workplace (Siemens Heathineers) after co-registration of the PET images. The T1-w images and the T1 maps were as well co-registered and used as anatomical references. The co-registered VOIs were exported and analyzed in MATLAB (R2013b; The MathWorks, Natick, MA, USA) using an in-house script. The percent injected dose per mL (%ID/mL) of the PET tracer was calculated voxel-wise by adjusting the radioactivity units (kBq/mL) for the injected activity and the half-life of ^64Cu (t1/2=12.7 h). On the other hand, the longitudinal relaxation rate (R1=1/T1) was calculated from the respective region drawn on the T1 maps. For the quantification, we considered voxels with R1 values between 0.4 and 10 s^-1. The estimated concentrations of Mn ([Mn]) were also calculated voxel-wise by the subtraction image acquired before and after the injection of MR-contrast agent and using the relaxivity (r1) of MnCl2:Bicine ([Mn]∝∆R1=(R1post-R1pre)/r1), which was calculated separately in a phantom study (Method S1 and Fig. S10). The indexes of [Mn] after 24 h were calculated using the overall mean of R1 obtained before and after 24 h, due to the different anatomical localization of the pancreata. […]

- [Mn] (Table S1, VOI Insulinomas 10-wk, 1 h, n=3/4): 1.4 ± 0.2 mM×10^-1
- log10(R1)×10^1 (Table S1, VOI Insulinomas 10-wk, 1 h, group mean ± SD of medians, n=3/4): 1.8 ± 0.2
- [Mn] (Table S1, VOI Insulinomas 10-wk, 24 h, n=3/3): 0.8 ± 0.2 mM×10^-1
- log10(R1)×10^1 (Table S1, VOI Insulinomas 10-wk, 24 h, group mean ± SD of medians, n=3/3): 0.5 ± 0.5
- [Mn] (Table S1, VOI Insulinomas 13-wk, 1 h, n=3/4): 0.9 ± 0.4 mM×10^-1
- log10(R1)×10^1 (Table S1, VOI Insulinomas 13-wk, 1 h, group mean ± SD of medians, n=3/4): 0.6 ± 1.1
- [Mn] (Table S1, VOI Insulinomas 13-wk, 24 h, n=3/3): 0.3 ± 0.4 mM×10^-1
- log10(R1)×10^1 (Table S1, VOI Insulinomas 13-wk, 24 h, group mean ± SD of medians, n=3/3): 1.6 ± 0.2
- [Mn] (Table S1, VOI Pancreas Control, 1 h, group mean ± SD, n=3/4): 1.8 ± 0.2 mM×10^-1
- log10(R1)×10^1 (Table S1, VOI Pancreas Control, 1 h, group mean ± SD of medians, n=3/4): 2.7 ± 0.3
- [Mn] (Table S1, VOI Pancreas Control, 24 h, group mean ± SD, n=3/3): 0.6 ± 0.2 mM×10^-1
- log10(R1)×10^1 (Table S1, VOI Pancreas Control, 24 h, group mean ± SD of medians, n=3/3): 1.0 ± 0.8
- [Mn] (Table S1, VOI Pancreas RIP1-Tag2 10-wk, 1 h, n=3/4): 1.2 ± 0.2 mM×10^-1
- log10(R1)×10^1 (Table S1, VOI Pancreas RIP1-Tag2 10-wk, 1 h, group mean ± SD of medians, n=3/4): 1.5 ± 0.6
- [Mn] (Table S1, VOI Pancreas RIP1-Tag2 10-wk, 24 h, n=3/3): 0.4 ± 0.1 mM×10^-1
- log10(R1)×10^1 (Table S1, VOI Pancreas RIP1-Tag2 10-wk, 24 h, group mean ± SD of medians, n=3/3): 0.0 ± 0.2
- [Mn] (Table S1, VOI Pancreas RIP1-Tag2 13-wk, 1 h, n=3/4): 1.0 ± 0.5 mM×10^-1
- log10(R1)×10^1 (Table S1, VOI Pancreas RIP1-Tag2 13-wk, 1 h, group mean ± SD of medians, n=3/4): 0.9 ± 1.6
- [Mn] (Table S1, VOI Pancreas RIP1-Tag2 13-wk, 24 h, n=3/3): 0.5 ± 0.4 mM×10^-1
- log10(R1)×10^1 (Table S1, VOI Pancreas RIP1-Tag2 13-wk, 24 h, group mean ± SD of medians, n=3/3): 0.1 ± 0.3
- log10(R1)×10^1 (VOI Insulinomas RIP1-Tag2 10-15 wk pooled, 1 h after i.v. 75 µmol/kg, mean ± SD): 1.2 ± 1.2
- log10(R1)×10^1 (VOI Insulinomas RIP1-Tag2 10-15 wk pooled, 24 h after i.v. 75 µmol/kg, mean ± SD): 0.4 ± 0.5
- log10(R1)×10^1 (VOI Pancreas Control, 1 h after i.v. 75 µmol/kg, 7 T, three flip angles, R1=1/T1, mean ± SD, n=3): 3.0 ± 0.7
- log10(R1)×10^1 (VOI Pancreas Control, 24 h after i.v. 75 µmol/kg, 7 T, three flip angles, mean ± SD, n=6): 0.1 ± 0.6
- log10(R1)×10^1 (VOI Pancreas RIP1-Tag2 10-15 wk pooled, 1 h after i.v. 75 µmol/kg, mean ± SD, n=7): 1.2 ± 1.1
- log10(R1)×10^1 (VOI Pancreas RIP1-Tag2 10-15 wk pooled, 24 h after i.v. 75 µmol/kg, mean ± SD, n=13): -0.1 ± 0.4
- [Mn] estimated in vivo, times lower in detected insulinomas than in pancreas of control mice (early time points (1 h)): ~2 times
Substance: MnCl2:Bicine
